Results published in patent US20130267516A1, “SUBSTITUTED CYCLOPENTYL-AZINES AS CASR-ACTIVE COMPOUNDS” (LEO PHARMA A/S, priority 2010, published 2013).

Assay: Clearance in rat hepatocytes
Assay type: in vitro ADME
Conditions: hepatic extraction ratio; 0.5 μM compound, 1×10^6 cells/mL, 20 min
Method: Test compounds and 4 control compounds are tested in duplicate per run. Test compound concentration is 0.5 μM and cell concentration is 1×10^6 cells/mL in the incubation. The described method is performed by the liquid handling system Tecan RSP and is based on a 96-well format.
The liver is collected from a male Spraque-Dawley rat. One liver lobe is cut off and flushed with various buffers to loosen the cells. The cell suspension is washed and centrifuged, and the cell density is adjusted to 1.2×10^6 cells/mL with Krebs-Henseleit buffer, pH 7.4, containing 0.2% bovine serum albumin (BSA). Only cell suspensions with viability above 80% are used.
The cell suspension is pre-heated (20 min) to 37° C. Test compound is added, and the mixture is incubated for 20 minutes. Incubations are run in duplicate. Samples are withdrawn at predetermined stop times and mixed with methanol containing internal standard (IS) to terminate all enzyme activity and precipitate proteins.
The percentage of organic solvent in the incubations is less than 1%. Careful inspections of reagents are performed prior to the start of any experiment to ensure all reagents are in solution.
The 96-well plates are centrifuged. Test compound depletion, using a compound specific LC/MS/MS method, is determined.
Data analysis is performed as described above in the section “Biological assay for analysis of clearance in human liver microsomes”, with the following modifications:
Intrinsic clearance (Clint) (mL/min/10^6 cells) is calculated from: […]
where c is the cell concentration in 10^6 cells/mL.
The following scaling factors for rat are used for eq. 4:
a: 120 (cells/liver weight (10^6 cells/g)) b: 10 (liver weight (g)) d: 0.25 (body weight (kg))
Liver blood flow in rats (for eq. 5):
Apparent clearance below approximately 25 mL/min/kg rat body weight (corresponding to an extraction ratio of approx. 33%) is considered as low clearance (high metabolic stability). Apparent intrinsic clearance above approximately 165 mL/min/kg rat body weight (corresponding to an extraction ratio of approx. 75%) is considered as high clearance (low metabolic stability).

Clearance (% Eh) in rat hepatocytes | SMILES
B (B: 33% ≦ Eh ≦ 75%) | C[C@@H](N[C@H]1CC[C@@H](c2ccc(NCCNCCO)nc2)C1)c1cccc2ccccc12.O=CO.O=CO.O=CO [Compound 101, 2-[2-[[5-[(1R,3S)-3-[[(1R)-1-(1-Naphthyl)ethyl]amino]cyclopentyl]-2-pyridyl]amino]ethylamino]ethanol]
A (A: Eh < 33%) | COc1cc([C@@H](C)N[C@H]2CC[C@@H](c3ccc(NC4CCNCC4)nc3)C2)ccc1F [Compound 107, 5-[(1R,3S)-3-[[(1R)-1-(4-Fluoro-3-methoxy-phenyl)ethyl]amino]cyclopentyl]-N-(4-piperidyl)pyridin-2-amine]
A (A: Eh < 33%) | COc1cc([C@@H](C)N[C@H]2CC[C@@H](c3ccc(N4CCNC(=O)C4)nc3)C2)ccc1F [Compound 109, 4-[5-[(1R,3S)-3-[[(1R)-1-(4-Fluoro-3-methoxy-phenyl)ethyl]amino]cyclopentyl]-2-pyridyl]piperazin-2-one]
A (A: Eh < 33%) | COc1cc([C@@H](C)N[C@H]2CC[C@@H](c3ccc(NCCS(N)(=O)=O)nc3)C2)ccc1F [Compound 113, 2-[[5-[(1R,3S)-3-[[(1R)-1-(4-Fluoro-3-methoxyphenyl)ethyl]amino]cyclopentyl]-2-pyridyl]amino]ethanesulfonamide]
A (A: Eh < 33%) | COc1cc([C@@H](C)N[C@H]2CC[C@@H](c3ccc(NCC(O)CO)nc3)C2)ccc1F (stereo partly drawn) [Compound 115, 3-[[5-[(1R,3S)-3-[[(1R)-1-(4-Fluoro-3-methoxyphenyl)ethyl]amino]cyclopentyl]-2-pyridyl]amino]propane-1,2-diol]
A (A: Eh < 33%) | COc1cc([C@@H](C)N[C@H]2CC[C@@H](c3ccc(N4CCN(C(C)=O)CC4)nc3)C2)ccc1F [Compound 116, 1-[4-[5-[(1R,3S)-3-[[(1R)-1-(4-Fluoro-3-methoxyphenyl)ethyl]amino]cyclopentyl]-2-pyridyl]piperazin-1-yl]ethanone]
B (B: 33% ≦ Eh ≦ 75%) | COc1cc([C@@H](C)N[C@H]2CC[C@@H](c3cnc(N4CCNC(=O)C4)nc3)C2)ccc1F [Compound 126, 4-[5-[(1R,3S)-3-[[(1R)-1-(4-Fluoro-3-methoxy-phenyl)ethyl]amino]cyclopentyl]pyrimidin-2-yl]piperazin-2-one]
A (A: Eh < 33%) | COc1cc([C@@H](C)N[C@H]2CC[C@@H](c3cnc(N4CCN(C(C)=O)CC4)nc3)C2)ccc1F.O=CO [Compound 127, 1-[4-[5-[(1R,3S)-3-[[(1R)-1-(4-Fluoro-3-methoxy-phenyl)ethyl]amino]cyclopentyl]pyrimidin-2-yl]piperazin-1-yl]ethanone]
